System: NHBE cells
Assay: Biolog metabolic array: substrate use by NHBE cells with or without CA09 infection
Format: cell-based, human
Conditions: for Substrate use, 590 nm absorbance normalized to zero hour, 1 hr: Biolog PMM2, 1 hr; for Substrate use, 590 nm absorbance normalized to zero hour, 5 hr: Biolog PMM2, 5 hr; for Substrate use, 590 nm absorbance normalized to zero hour, 7 hr: Biolog PMM2, 7 hr; for Substrate use, 590 nm absorbance normalized to zero hour, 0 hr: Biolog PMM2, 0 hr
[1] = Control (uninfected) NHBE cells
[2] = Virus (CA09, MOI 1) infected NHBE cells
[3] = Virus (CA09-infected, MOI 1) NHBE cells
[4] = Virus: CA09-infected NHBE cells, MOI 1, Biolog PMM2

Row | SMILES | 590 nm absorbance normalized to zero hour (substrate use), 1 hr [1] | 590 nm absorbance normalized to zero hour (substrate use), 2 hr [1] | 590 nm absorbance normalized to zero hour (substrate use), 3 hr [1] | 590 nm absorbance normalized to zero hour (substrate use), 4 hr [1] | 590 nm absorbance normalized to zero hour (substrate use), 6 hr [1] | 590 nm absorbance normalized to zero hour (substrate use), 8 hr [1] | 590 nm absorbance normalized to zero hour (substrate use), 9 hr [1] | 590 nm absorbance normalized to zero hour (substrate use), 10 hr [1] | 590 nm absorbance normalized to zero hour (substrate use), 11 hr [1] | Substrate use, 590 nm absorbance normalized to zero hour, 1 hr [1] | Substrate use, 590 nm absorbance normalized to zero hour, 5 hr [1] | Substrate use, 590 nm absorbance normalized to zero hour, 7 hr [1] | 590 nm absorbance normalized to zero hour (substrate use), 1 hr [3] | 590 nm absorbance normalized to zero hour (substrate use), 2 hr [3] | 590 nm absorbance normalized to zero hour (substrate use), 3 hr [3] | 590 nm absorbance normalized to zero hour (substrate use), 4 hr [3] | 590 nm absorbance normalized to zero hour (substrate use), 6 hr [3] | 590 nm absorbance normalized to zero hour (substrate use), 8 hr [3] | 590 nm absorbance normalized to zero hour (substrate use), 9 hr [3] | 590 nm absorbance normalized to zero hour (substrate use), 10 hr [3] | other results
1 | OCc1ccccc1O[C@@H]1O[C@H](CO)[C@@H](O)[C@H](O)[C@H]1O [Salicin] | 1.17 | 0.93 | 0.96 | 0.83 | 0.43 | 0.67 | 0.66 | 0.62 | 0.62 | 1.17 | 0.78 | 0.69 | 0.77 | 1.06 | 1.26 | 1.36 | 1.76 | 2.01 | 2.26 | 2.38 | Substrate use, 590 nm absorbance normalized to zero hour, 1 hr [2]: 0.77; Substrate use, 590 nm absorbance normalized to zero hour, 5 hr [2]: 1.64; Substrate use, 590 nm absorbance normalized to zero hour, 7 hr [2]: 1.87; 590 nm absorbance normalized to zero hour (substrate use), 11 hr [3]: 2.62
2 | OC[C@@]12OC[C@@H](O1)[C@@H](O)[C@@H](O)[C@@H]2O [Sedoheptulosan] | 0.31 | 0.41 | 0.44 | 0.49 | 0.56 | 0.71 | 0.82 | 0.89 | 1.46 | 0.31 | 0.61 | 0.71 | 1.49 | 1.48 | 1.46 | 1.43 | 1.36 | 1.49 | 1.58 | 1.48 | 590 nm absorbance normalized to zero hour (substrate use), 0 hr [1]: 1.00; Substrate use, 590 nm absorbance normalized to zero hour, 0 hr [1]: 1.00; 590 nm absorbance normalized to zero hour (substrate use), 0 hr [3]: 1.00; 590 nm absorbance normalized to zero hour (substrate use), 5 hr [3]: 1.30; 590 nm absorbance normalized to zero hour (substrate use), 7 hr [3]: 1.39; 590 nm absorbance normalized to zero hour (substrate use), 11 hr [3]: 1.65; 590 nm absorbance normalized to zero hour (substrate use), 0 hr [4]: 1.00; 590 nm absorbance normalized to zero hour (substrate use), 1 hr [4]: 1.49; 590 nm absorbance normalized to zero hour (substrate use), 2 hr [4]: 1.48; 590 nm absorbance normalized to zero hour (substrate use), 3 hr [4]: 1.46; 590 nm absorbance normalized to zero hour (substrate use), 4 hr [4]: 1.43; 590 nm absorbance normalized to zero hour (substrate use), 5 hr [4]: 1.30; 590 nm absorbance normalized to zero hour (substrate use), 6 hr [4]: 1.36; 590 nm absorbance normalized to zero hour (substrate use), 7 hr [4]: 1.39; 590 nm absorbance normalized to zero hour (substrate use), 8 hr [4]: 1.49; 590 nm absorbance normalized to zero hour (substrate use), 9 hr [4]: 1.58; 590 nm absorbance normalized to zero hour (substrate use), 10 hr [4]: 1.48; 590 nm absorbance normalized to zero hour (substrate use), 11 hr [4]: 1.65
3 | OC[C@H]1O[C@H](OC[C@H]2O[C@H](OC[C@H]3O[C@H](O[C@]4(CO)O[C@H](CO)[C@@H](O)[C@@H]4O)[C@H](O)[C@@H](O)[C@@H]3O)[C@H](O)[C@@H](O)[C@H]2O)[C@H](O)[C@@H](O)[C@H]1O [Stachyose] | 8.51 | 8.20 | 7.94 | 8.00 | 3.45 | 3.67 | 3.90 | 9.13 | 4.47 | 8.51 | 3.55 | 6.99 | 1.42 | 1.76 | 1.96 | 2.07 | 5.10 | 3.40 | 3.17 | 2.89 | 590 nm absorbance normalized to zero hour (substrate use), 0 hr [1]: 1.00; Substrate use, 590 nm absorbance normalized to zero hour, 0 hr [1]: 1.00; 590 nm absorbance normalized to zero hour (substrate use), 0 hr [3]: 1.00; 590 nm absorbance normalized to zero hour (substrate use), 5 hr [3]: 4.65; 590 nm absorbance normalized to zero hour (substrate use), 7 hr [3]: 3.71; 590 nm absorbance normalized to zero hour (substrate use), 11 hr [3]: 4.13; 590 nm absorbance normalized to zero hour (substrate use), 0 hr [4]: 1.00; 590 nm absorbance normalized to zero hour (substrate use), 1 hr [4]: 1.42; 590 nm absorbance normalized to zero hour (substrate use), 2 hr [4]: 1.76; 590 nm absorbance normalized to zero hour (substrate use), 3 hr [4]: 1.96; 590 nm absorbance normalized to zero hour (substrate use), 4 hr [4]: 2.07; 590 nm absorbance normalized to zero hour (substrate use), 5 hr [4]: 4.65; 590 nm absorbance normalized to zero hour (substrate use), 6 hr [4]: 5.10; 590 nm absorbance normalized to zero hour (substrate use), 7 hr [4]: 3.71; 590 nm absorbance normalized to zero hour (substrate use), 8 hr [4]: 3.40; 590 nm absorbance normalized to zero hour (substrate use), 9 hr [4]: 3.17; 590 nm absorbance normalized to zero hour (substrate use), 10 hr [4]: 2.89; 590 nm absorbance normalized to zero hour (substrate use), 11 hr [4]: 4.13
4 | NC(=O)CCC(=O)O [Succinamic Acid] | 1.11 | 0.37 | 0.42 | 0.42 | 0.44 | 0.51 | 0.54 | 0.56 | 0.61 | 1.11 | 0.45 | 0.50 | 1.45 | 1.65 | 1.88 | 1.85 | 2.14 | 2.30 | 2.41 | 2.37 | Substrate use, 590 nm absorbance normalized to zero hour, 1 hr [2]: 1.45; Substrate use, 590 nm absorbance normalized to zero hour, 5 hr [2]: 2.03; Substrate use, 590 nm absorbance normalized to zero hour, 7 hr [2]: 2.22; 590 nm absorbance normalized to zero hour (substrate use), 11 hr [3]: 2.51

Reference: patent publication US11083725B2 (priority 2014, dated 2021)
